The results in this text go back to PubChem BioAssay (NCI).

Several values for one entry are separate records, joined by “and”; a condition that tells them apart may be missing. Equal entries are not always repeated.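 Each compound was tested at five concentrations against cells in 96-well plates for 48 hours. GI50 is the concentration that inhibits growth by half. At the TGI there is no net growth.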

Among the test systems are NCI-H522 lung; SR leukemia; IGROV1 ovarian; SK-MEL-5 melanoma; OVCAR-3 ovarian; SF-539 CNS; SNB-75 CNS; SN12C renal; HCT-116 colon; SNB-19 CNS.
Holding throughout (assay): DTP human tumour cell line panel, 48 h

Take `COc1ccc(N2CCN(C(=O)c3ccccc3Nc3ccnc(C(F)(F)F)c3)CC2)cc1`: the GI50 in the experiment with NCI-H522 lung was 18.1 µM; with SR leukemia, 10.8 µM; in the experiment on IGROV1 ovarian it was 13.7 µM; in the experiment with SK-MEL-5 melanoma, 10.3 µM; with OVCAR-3 ovarian, 28.5 µM; in the experiment with SF-539 CNS, greater than 100 µM. Moreover, the GI50 was 50.5 µM in the experiment on SNB-75 CNS, 64.4 µM in the experiment with SN12C renal, 37.7 µM in the experiment on HCT-116 colon and 78.3 µM in the experiment with SNB-19 CNS. Further, the TGI was greater than 100 µM with NCI-H522 lung; greater than 100 µM with SR leukemia; 93.6 µM with IGROV1 ovarian; 29.4 µM with SK-MEL-5 melanoma; greater than 100 µM in the experiment with OVCAR-3 ovarian; greater than 100 µM in the experiment with SF-539 CNS. Further, the TGI with SNB-75 CNS, in the experiment with SN12C renal, in the experiment on HCT-116 colon and with SNB-19 CNS was greater than 100 µM in each case.

Turning to `CC(=O)Oc1ccc(OC(C)=O)c2ccccc12`, the GI50 was 2.04 µM with NCI-H522 lung; 3.19 µM in the experiment on SR leukemia; 3.2 µM in the experiment with IGROV1 ovarian; 13.5 µM in the experiment with SK-MEL-5 melanoma; 3.55 µM in the experiment on OVCAR-3 ovarian; 13.2 µM with SF-539 CNS. Moreover, the GI50 with SNB-75 CNS is 14 µM; with SN12C renal, 14 µM; with HCT-116 colon, 3.59 µM; in the experiment on SNB-19 CNS, 30.5 µM. In addition, the TGI was 5.41 µM in the experiment on NCI-H522 lung; 11.7 µM with SR leukemia; 11.5 µM in the experiment on IGROV1 ovarian; 26.4 µM with SK-MEL-5 melanoma; 12.9 µM in the experiment on OVCAR-3 ovarian; 26.4 µM in the experiment on SF-539 CNS. The TGI with SNB-75 CNS was 27.7 µM; in the experiment with SN12C renal, 27.5 µM; in the experiment with HCT-116 colon, 12.9 µM; in the experiment with SNB-19 CNS, greater than 100 µM.

Take `COc1ccc(/C=C/c2c(C(=O)/C=C/c3ccc(Cl)cc3)c(C)nc3ccccc23)cc1`: the GI50 in the experiment on NCI-H522 lung was 1.59 µM; in the experiment on SR leukemia, 1.37 µM; in the experiment with IGROV1 ovarian, 0.663 µM; in the experiment on SK-MEL-5 melanoma it was 1.72 µM; with OVCAR-3 ovarian it was 1.62 µM; with SF-539 CNS, 1.78 µM. The GI50 in the experiment on SNB-75 CNS was 1.5 µM; with SN12C renal, 2.41 µM; in the experiment on HCT-116 colon it was 0.799 µM; in the experiment with SNB-19 CNS it was 1.74 µM. Further, the TGI is 4.62 µM in the experiment with NCI-H522 lung; greater than 100 µM with SR leukemia; 2.54 µM with IGROV1 ovarian; 3.11 µM in the experiment with SK-MEL-5 melanoma; 3.19 µM with OVCAR-3 ovarian; 3.27 µM with SF-539 CNS. In addition, the TGI amounted to 3.14 µM in the experiment on SNB-75 CNS, 6.97 µM in the experiment on SN12C renal, 2.19 µM in the experiment with HCT-116 colon and 3.29 µM with SNB-19 CNS.

`C/C(=C\c1ccc(Cl)cc1)C(C)(C)C(=O)O`: the TGI in the experiment with NCI-H522 lung, in the experiment on SR leukemia, in the experiment on IGROV1 ovarian, with SK-MEL-5 melanoma, in the experiment with OVCAR-3 ovarian and in the experiment on SF-539 CNS was greater than 100 µM in each case. Also, the total growth inhibition concentration (TGI) in the experiment on SNB-75 CNS, in the experiment on SN12C renal, in the experiment on HCT-116 colon and in the experiment on SNB-19 CNS was greater than 100 µM in each case.

Take `CC1(C)N=C(N)N=C(N)N1c1cccc(C#N)c1`: the GI50 with NCI-H522 lung was 4.68 µM; in the experiment on SR leukemia, 4.36 µM; in the experiment with IGROV1 ovarian, 6.7 µM; with SK-MEL-5 melanoma, 8.1 µM; in the experiment with OVCAR-3 ovarian, 19 µM; with SF-539 CNS it was 3.74 µM. For the same molecule, the GI50 was 9.03 µM with SNB-75 CNS, 6.1 µM in the experiment with SN12C renal, 0.364 µM in the experiment with HCT-116 colon and 49.4 µM in the experiment with SNB-19 CNS. For the same molecule, the TGI in the experiment with NCI-H522 lung, in the experiment on SR leukemia, in the experiment with IGROV1 ovarian, in the experiment with SK-MEL-5 melanoma, in the experiment with OVCAR-3 ovarian and in the experiment with SF-539 CNS was greater than 100 µM each time. Besides, the TGI in the experiment on SNB-75 CNS, in the experiment on SN12C renal, with HCT-116 colon and with SNB-19 CNS was greater than 100 µM in each case.

Turning to `COc1ccc(-c2ccc3c(NC(=O)C4CC4)n[nH]c3n2)cc1`, the GI50 is greater than 22.9 µM with NCI-H522 lung; greater than 25 µM in the experiment on SR leukemia; greater than 25 µM in the experiment with IGROV1 ovarian; greater than 25 µM in the experiment on SK-MEL-5 melanoma; greater than 25 µM with OVCAR-3 ovarian; greater than 25 µM with SF-539 CNS. Further, the GI50 is 5.1 µM in the experiment with SNB-75 CNS, greater than 25 µM in the experiment with SN12C renal, greater than 25 µM with HCT-116 colon and 15.9 µM in the experiment with SNB-19 CNS. Moreover, the TGI in the experiment with NCI-H522 lung, with SR leukemia, in the experiment on IGROV1 ovarian, with SK-MEL-5 melanoma, in the experiment on OVCAR-3 ovarian and with SF-539 CNS was greater than 25 µM in each case. Further, the TGI is greater than 17.2 µM in the experiment with SNB-75 CNS, greater than 25 µM with SN12C renal, greater than 25 µM with HCT-116 colon and greater than 25 µM with SNB-19 CNS.

In the case of `CC1(O)C=CC2CCC1C2O` (centres undefined), the TGI was greater than 100 µM with NCI-H522 lung; 50.2 µM with SR leukemia; greater than 100 µM in the experiment with IGROV1 ovarian; greater than 100 µM in the experiment on SK-MEL-5 melanoma; greater than 100 µM with OVCAR-3 ovarian; greater than 100 µM with SF-539 CNS. Also, the TGI in the experiment with SNB-75 CNS is greater than 100 µM; with SN12C renal, greater than 100 µM; in the experiment with HCT-116 colon, 36.2 µM; in the experiment on SNB-19 CNS, greater than 100 µM.

As to `C[C@]12O[C@H](C[C@]1(O)CO)n1c3ccccc3c3c4c(c5c6ccccc6n2c5c31)CNC4=O`, the GI50 was 0.0374 µM and 0.135 µM in the experiment with NCI-H522 lung; 0.0203 µM and 0.022 µM in the experiment with SR leukemia; 0.0514 µM and 0.111 µM in the experiment on IGROV1 ovarian; 0.398 µM and 0.0869 µM in the experiment with SK-MEL-5 melanoma; 0.37 µM and 0.391 µM with OVCAR-3 ovarian; 0.114 µM and 0.0846 µM with SF-539 CNS. The GI50 was 0.0492 µM and 0.0852 µM in the experiment with SNB-75 CNS; 0.0382 µM and 0.0293 µM in the experiment on SN12C renal; 0.0291 µM and 0.0408 µM in the experiment on HCT-116 colon; 0.546 µM and 0.544 µM in the experiment with SNB-19 CNS. For the same molecule, the TGI in the experiment with NCI-H522 lung was 1.5 µM and 2.06 µM; in the experiment on SR leukemia, 0.474 µM and 0.24 µM; in the experiment with IGROV1 ovarian, 3.67 µM and 4.9 µM; in the experiment with SK-MEL-5 melanoma, 2.06 µM and 1.84 µM; with OVCAR-3 ovarian, 3.31 µM and 2.76 µM; in the experiment on SF-539 CNS, 0.889 µM and 0.54 µM. Also, the TGI with SNB-75 CNS was 0.556 µM and 1.3 µM; in the experiment with SN12C renal, 2.01 µM and 2.35 µM; in the experiment with SNB-19 CNS, 4.08 µM and 3.22 µM.

Regarding `COc1ccc(OC)c(-c2nc3sccn3c2/C=C2/C(=O)Nc3ccc(Cl)cc32)c1`, the GI50 was 21.5 µM with NCI-H522 lung; 18.5 µM with SR leukemia; 33.5 µM in the experiment on IGROV1 ovarian; 17.4 µM with SK-MEL-5 melanoma; 21.7 µM with OVCAR-3 ovarian; 24.3 µM in the experiment with SF-539 CNS. The GI50 in the experiment on SNB-75 CNS was 19.7 µM; in the experiment with SN12C renal, 35.2 µM; in the experiment with HCT-116 colon, 29.7 µM; with SNB-19 CNS, 33.6 µM. Moreover, the TGI was 51.6 µM in the experiment with NCI-H522 lung; 53.4 µM in the experiment on SR leukemia; greater than 100 µM with IGROV1 ovarian; 33.1 µM in the experiment on SK-MEL-5 melanoma; 55.2 µM with OVCAR-3 ovarian; 60.9 µM in the experiment with SF-539 CNS. Besides, the TGI in the experiment on SNB-75 CNS was 48.6 µM; in the experiment with SN12C renal it was greater than 100 µM; in the experiment on HCT-116 colon it was greater than 100 µM; in the experiment with SNB-19 CNS it was greater than 100 µM.

On to `NCCCCCS(=O)(=O)O`, for which the total growth inhibition concentration (TGI) in the experiment with NCI-H522 lung, with SR leukemia, in the experiment on IGROV1 ovarian, with SK-MEL-5 melanoma, in the experiment on OVCAR-3 ovarian and in the experiment with SF-539 CNS was greater than 100 µM in each case. Moreover, the TGI in the experiment on SNB-75 CNS, with SN12C renal, with HCT-116 colon and in the experiment on SNB-19 CNS was greater than 100 µM each time.

In the case of `O=C(c1ccccc1Nc1ccnc(C(F)(F)F)c1)N1CCN(c2cccc(Cl)c2)CC1`, the GI50 in the experiment with NCI-H522 lung is 15.4 µM; in the experiment with SR leukemia it was 13.5 µM; in the experiment on IGROV1 ovarian it was 5.53 µM; in the experiment on SK-MEL-5 melanoma, 8.29 µM; in the experiment with OVCAR-3 ovarian it was 19 µM; in the experiment on SF-539 CNS, 17.8 µM. Further, the GI50 with SNB-75 CNS is 26 µM; in the experiment on SN12C renal it was 16.4 µM; with HCT-116 colon, 12.2 µM; in the experiment with SNB-19 CNS, 26.1 µM. Besides, the TGI with NCI-H522 lung was 63.5 µM; with SR leukemia it was greater than 58.7 µM; in the experiment on IGROV1 ovarian it was 24 µM; in the experiment with SK-MEL-5 melanoma it was 21.8 µM; with OVCAR-3 ovarian it was greater than 80.9 µM; with SF-539 CNS, 41.1 µM. Moreover, the TGI in the experiment with SNB-75 CNS is greater than 92.2 µM; in the experiment on SN12C renal, 45 µM; in the experiment with HCT-116 colon, 29 µM; with SNB-19 CNS, greater than 100 µM.

In the case of `CCOC1OCCCC1Br` (centres undefined), the TGI in the experiment with NCI-H522 lung, in the experiment with SR leukemia, in the experiment with IGROV1 ovarian, in the experiment on SK-MEL-5 melanoma, in the experiment on OVCAR-3 ovarian and in the experiment with SF-539 CNS was greater than 100 µM each time. Also, the TGI in the experiment on SNB-75 CNS, in the experiment on SN12C renal, with HCT-116 colon and in the experiment with SNB-19 CNS was greater than 100 µM throughout.

For the molecule `O=C(c1cc(O)ccc1O)c1ccccc1C(Cl)(Cl)Cl`, the TGI in the experiment with NCI-H522 lung, in the experiment on SR leukemia, with IGROV1 ovarian, with SK-MEL-5 melanoma, in the experiment on OVCAR-3 ovarian and in the experiment with SF-539 CNS was greater than 100 µM throughout. In addition, the TGI in the experiment on SNB-75 CNS, with SN12C renal, in the experiment on HCT-116 colon and in the experiment with SNB-19 CNS was greater than 100 µM each time.

For orientation: GI50 means the concentration at which growth is held to half of that of the control. The TGI is the concentration at which net growth stops. A higher TGI goes with less potent growth arrest.
